From ChEMBL document CHEMBL1146948, “Synthesis and biological activity of diaryl ether inhibitors of malarial enoyl acyl carrier protein reductase. Part 2: 2'-substituted triclosan derivatives” (Bioorg Med Chem Lett, 2006)

Key:
Plasmodium falciparum [1] = experiment: Antimalarial activity against Plasmodium falciparum 3D7; format: functional, organism-based
Plasmodium falciparum [2] = experiment: Antimalarial activity against Plasmodium falciparum Dd2; format: functional, organism-based
[3] = biological target: T1, Enoyl-acyl-carrier protein reductase (Plasmodium falciparum, UniProt Q965D5); experiment: Inhibition of Plasmodium falciparum ENR enzymatic activity
T1 sequence (Q965D5 whole entry): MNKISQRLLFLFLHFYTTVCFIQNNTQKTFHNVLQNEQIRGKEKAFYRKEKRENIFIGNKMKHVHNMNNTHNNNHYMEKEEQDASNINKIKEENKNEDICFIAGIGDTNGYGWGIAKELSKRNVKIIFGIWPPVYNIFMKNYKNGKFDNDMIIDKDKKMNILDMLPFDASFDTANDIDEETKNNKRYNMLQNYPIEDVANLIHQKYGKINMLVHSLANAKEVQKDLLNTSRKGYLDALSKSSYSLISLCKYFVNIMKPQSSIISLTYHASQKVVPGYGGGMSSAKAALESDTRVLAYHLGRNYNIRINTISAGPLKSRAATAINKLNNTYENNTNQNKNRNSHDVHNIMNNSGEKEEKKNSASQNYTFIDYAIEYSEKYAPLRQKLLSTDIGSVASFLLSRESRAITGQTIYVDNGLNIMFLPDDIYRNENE

| Compound | EC50 (Plasmodium falciparum [1]) | EC50 (Plasmodium falciparum [2]) | IC50 [3] |
| --- | --- | --- | --- |
| NCc1ccccc1Oc1ccc(Cl)cc1O | 9700 nM | 7200 nM | > 50000 nM |
| CN(Cc1ccc(Cl)cc1)Cc1cc(Cl)ccc1Oc1ccc(Cl)cc1O | 250 nM | 190 nM | 22000 nM |
| Nc1ccccc1Oc1ccc(Cl)cc1O | 83000 nM | 140000 nM | 7000 nM |
| CC(C)(NCc1ccc(Cl)cc1)c1cc(Cl)ccc1Oc1ccc(Cl)cc1O | 410 nM | 350 nM | 7200 nM |
| Oc1cc(Cl)ccc1Oc1ccccc1CNc1ccc2ccccc2c1 | 450 nM | 330 nM | 46000 nM |
| CN(Cc1ccc(Cl)cc1)C(C)(C)c1cc(Cl)ccc1Oc1ccc(Cl)cc1O | 140 nM | 380 nM | 27000 nM |
| CN(C)Cc1cc(Cl)ccc1Oc1ccc(Cl)cc1O | 180 nM | 220 nM | 19000 nM |
| NCc1cc(Cl)ccc1Oc1ccc(Cl)cc1O | 2700 nM | 2000 nM | > 50000 nM |
| COc1cc(Cl)ccc1Oc1ccccc1CNCc1ccc(Cl)cc1 | 19000 nM | 24000 nM | > 50000 nM |
| Oc1cc(Cl)ccc1Oc1ccccc1CNCCCc1ccccc1 | 320 nM | 390 nM | 19000 nM |
| Oc1cc(Cl)ccc1Oc1ccccc1CNCc1ccccc1 | 490 nM | 420 nM | 10000 nM |
| Oc1cc(Cl)ccc1Oc1ccc(Cl)cc1CNCc1ccc(Cl)cc1 | 320 nM | 270 nM | 7200 nM |
| Oc1cc(Cl)ccc1Oc1ccc(Cl)cc1CNc1ccc2ccccc2c1 | 210 nM | 140 nM | 26000 nM |
| Oc1cc(Cl)ccc1Oc1ccccc1CNCCc1ccccc1 | 780 nM | 750 nM | 2500 nM |
| Oc1cc(Cl)ccc1Oc1ccccc1CNc1cccc2ccccc12 | 300 nM | 370 nM | 11000 nM |
| Oc1cc(Cl)ccc1Oc1ccc(Cl)cc1CNCc1ccc2c(c1)CCO2 | 180 nM | 110 nM | 9000 nM |
| CC(=O)N(Cc1ccc(Cl)cc1)Cc1cc(Cl)ccc1Oc1ccc(Cl)cc1O | 3500 nM | 5900 nM | 28000 nM |
| CNCc1cc(Cl)ccc1Oc1ccc(Cl)cc1O | 580 nM | 470 nM | 27000 nM |

The next lines start with the values.

| EC50 (Plasmodium falciparum [1]) | EC50 (Plasmodium falciparum [2]) | IC50 [3] | Compound |
| --- | --- | --- | --- |
| 2100 nM | 1400 nM | > 50000 nM | Oc1cc(Cl)ccc1Oc1ccc(Cl)cc1CN1CCN(C(c2ccccc2)c2ccccc2)CC1 |
| 2600 nM | 2200 nM | > 50000 nM | Oc1cc(Cl)ccc1Oc1ccc(Cl)cc1CNc1cccc2ccccc12 |
| 630 nM | 620 nM | 11000 nM | Oc1cc(Cl)ccc1Oc1ccc(Cl)cc1CN1CCN(Cc2ccccc2)CC1 |
| 770 nM | 830 nM | 3300 nM | Oc1cc(Cl)ccc1Oc1ccc(Cl)cc1CNCc1ccccc1 |
| 8600 nM | 12000 nM | 18000 nM | O=C(NCc1cc(Cl)ccc1Oc1ccc(Cl)cc1O)c1ccccc1 |
| 330 nM | 300 nM | 35000 nM | Oc1cc(Cl)ccc1Oc1ccccc1CNCc1ccc(Cl)cc1 |
| 11000 nM | 17000 nM | 15000 nM | O=S(=O)(NCc1cc(Cl)ccc1Oc1ccc(Cl)cc1O)c1ccccc1 |
| 500 nM | 450 nM | > 50000 nM | Oc1cc(Cl)ccc1Oc1ccc(Cl)cc1CN1CCCC1 |
| 14000 nM | 15000 nM | 6100 nM | Oc1cc(Cl)ccc1Oc1ccc(Cl)cc1CN1CCN(c2ccccc2)CC1 |
| 230 nM | 150 nM | 35000 nM | Oc1cc(Cl)ccc1Oc1ccc(Cl)cc1CNCc1ccc(-c2ccccc2)cc1 |
| 730 nM | 480 nM | > 50000 nM | Oc1cc(Cl)ccc1Oc1ccc(Cl)cc1CN1CCCCC1 |
